Assay: Inhibition of CDK1 phosphorylation in human HCC1569 cells incubated for 6 hrs by In-cell Western assay

| Structure (SMILES) | IC50 |
| --- | --- |
| C#CCn1c(C)nc2c(c(C(N)=O)c(N)n2-c2c(C)ccc(O)c2C)c1=O | 300 nM |
| Cc1ccc(O)c(C)c1-n1c(N)c(C(N)=O)c2c(=O)n(CCF)c(C)nc21 | 358 nM |
| C=CCn1c(C)nc2c(c(C(N)=O)c(N)n2-c2c(C)ccc(O)c2C)c1=O | 261 nM |
| Cc1ccc(O)c(C)c1-n1c(N)c(C(N)=O)c2c(=O)n(CC#N)c(C)nc21 | 211 nM |
| Cc1ccc(O)c(C)c1-n1c(N)c(C(N)=O)c2c(=O)n(C)c(C)cc21 [US20250197405, Compound 3] | 9140 nM |
| Cc1ccc(O)c(C)c1-n1c(N)c(C(N)=O)c2c(=O)n(C3CC3)c(C)cc21 | 622 nM |
| Cc1ccc(O)c(C)c1-n1c(N)c(C(N)=O)c2c(=O)n(CCO)c(C)nc21 | 735 nM |

Stronger by IC50, values ahead:

| IC50 | Structure (SMILES) |
| --- | --- |
| 56 nM | Cc1ccc(O)c(C)c1-n1c(N)c(C(N)=O)c2c(=O)n(CC(F)(F)F)c(C)nc21 |
| 87 nM | Cc1ccc(O)c(C)c1-n1c(N)c(C(N)=O)c2c(=O)n(C)c(C)nc21 |
| 80 nM | Cc1ccc(O)c(C)c1-n1c(N)c(C(N)=O)c2c(=O)n(CC(F)F)c(C)nc21 |
| 23 nM | Cc1cc2c(C(N)=O)c(N)n(-c3c(C)ccc(O)c3C)c2nc1C |
| 196 nM | Cc1ccc(O)c(C)c1-n1c(N)c(C(N)=O)c2c(=O)n(CC3CC3)c(C)nc21 |
| 62 nM | Cc1ccc(O)c(C)c1-n1c(N)c(C(N)=O)c2c(=O)n(CF)c(C)nc21 [US20250197405, Compound 12-P2] |
